Results from ChEMBL document CHEMBL1201862, “PubChem BioAssay data set” (2004).
Calls of active or inactive are those of the source.

Legend:
[1] = biological target: Serine/threonine-protein phosphatase PP1-alpha catalytic subunit (Homo sapiens, UniProt P62136); test: inhibition of protein phosphatase 1 activity – biochemical, fluorescence, dose response (AID 2403);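 also: phosphatase turnover of OMFP into fluorescent 3-O-methylfluorescein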
[2] = biological target: T1, Serine/threonine-protein phosphatase (Homo sapiens, UniProt Q9BPW0); test: Counterscreen for inhibitors of PP1: fluorescence-based biochemical high throughput dose response assay to identify inhibitors of Protein Phosphatase 5 (PP5). [Related pubchem assays: 2034 (Summary (PP5 inhibitors)), 1987 (PP5 inhibitors in singlate), 2235 (PP1 inhibitors in singlate)]
T1 sequence (Q9BPW0 whole entry): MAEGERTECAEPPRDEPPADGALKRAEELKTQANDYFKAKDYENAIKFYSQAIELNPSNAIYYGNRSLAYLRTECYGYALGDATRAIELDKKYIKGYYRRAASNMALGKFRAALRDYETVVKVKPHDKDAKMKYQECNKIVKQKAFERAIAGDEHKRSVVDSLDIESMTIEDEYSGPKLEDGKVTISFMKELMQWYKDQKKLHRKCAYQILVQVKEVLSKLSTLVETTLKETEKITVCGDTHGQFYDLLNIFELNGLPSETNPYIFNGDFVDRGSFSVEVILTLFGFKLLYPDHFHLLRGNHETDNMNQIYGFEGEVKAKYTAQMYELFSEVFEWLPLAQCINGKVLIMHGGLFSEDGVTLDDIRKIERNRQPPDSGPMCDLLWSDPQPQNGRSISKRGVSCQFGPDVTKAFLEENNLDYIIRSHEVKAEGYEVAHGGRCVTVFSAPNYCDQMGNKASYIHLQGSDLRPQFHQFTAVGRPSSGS

[3] = biological target: Protein Rev (Human immunodeficiency virus type 1 group M subtype B (isolate HXB2)(HIV-1), UniProt P04618); test: blockers of HIV Rev/RRE RNA complex – biochemical, fluorescence polarization, HIV-1, dose response (AID 434976); set-up: species or system Human immunodeficiency virus 1
Protein Rev, sequence (P04618 whole entry, the tested form may be a part): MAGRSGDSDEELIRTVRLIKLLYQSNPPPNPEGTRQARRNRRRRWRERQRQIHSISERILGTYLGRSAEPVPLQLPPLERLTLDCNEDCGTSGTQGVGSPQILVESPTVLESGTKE

[4] = biological target: T2, Polyadenylate-binding protein 1 (Homo sapiens, UniProt P11940); test: MLLE domain peptide-binding blockers, IC50 – biochemical, fluorescence polarization, FITC-PAM2 peptide, dose response (AID 602259); format: functional; conditions: read-out: IC50_Mean
T2 sequence (P11940 whole entry, the tested form may be a part): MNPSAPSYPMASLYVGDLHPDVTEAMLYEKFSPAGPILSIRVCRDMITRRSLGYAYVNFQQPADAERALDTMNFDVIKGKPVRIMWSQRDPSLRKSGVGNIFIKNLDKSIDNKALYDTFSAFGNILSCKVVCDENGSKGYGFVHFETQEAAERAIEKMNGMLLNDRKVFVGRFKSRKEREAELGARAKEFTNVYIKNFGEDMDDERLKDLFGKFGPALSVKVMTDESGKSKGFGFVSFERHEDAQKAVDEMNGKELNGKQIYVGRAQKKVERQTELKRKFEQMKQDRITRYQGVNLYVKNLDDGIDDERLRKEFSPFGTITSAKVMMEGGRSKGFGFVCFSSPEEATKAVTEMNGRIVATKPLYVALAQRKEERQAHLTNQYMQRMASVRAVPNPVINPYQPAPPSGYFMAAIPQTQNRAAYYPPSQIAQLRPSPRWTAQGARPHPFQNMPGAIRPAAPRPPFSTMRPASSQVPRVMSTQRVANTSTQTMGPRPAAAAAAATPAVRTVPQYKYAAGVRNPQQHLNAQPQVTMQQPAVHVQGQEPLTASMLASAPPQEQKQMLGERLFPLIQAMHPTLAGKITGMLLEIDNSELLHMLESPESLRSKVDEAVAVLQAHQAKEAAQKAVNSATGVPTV

[5] = biological target: Female germline-specific tumor suppressor gld-1 (Caenorhabditis elegans, UniProt Q17339); test: blockers of GLD-1/TGE RNA complex formation – biochemical, fluorescence polarization, C. elegans, dose response (AID 2802);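 also: fluorescence polarization of labeled TGE RNA bound by purified gld-1 protein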
Female germline-specific tumor suppressor gld-1, sequence (Q17339 whole entry): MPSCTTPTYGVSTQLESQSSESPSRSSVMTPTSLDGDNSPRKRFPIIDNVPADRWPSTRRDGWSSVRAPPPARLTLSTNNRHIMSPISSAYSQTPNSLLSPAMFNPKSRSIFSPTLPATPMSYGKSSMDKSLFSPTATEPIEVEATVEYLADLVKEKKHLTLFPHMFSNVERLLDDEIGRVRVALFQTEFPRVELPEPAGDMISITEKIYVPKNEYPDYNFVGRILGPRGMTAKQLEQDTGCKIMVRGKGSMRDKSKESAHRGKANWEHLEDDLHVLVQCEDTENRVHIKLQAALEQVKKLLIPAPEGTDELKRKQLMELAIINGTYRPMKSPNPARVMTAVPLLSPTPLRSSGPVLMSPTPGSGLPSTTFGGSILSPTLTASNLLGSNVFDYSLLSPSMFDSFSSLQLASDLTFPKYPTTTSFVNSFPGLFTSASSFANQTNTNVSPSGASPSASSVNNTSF

[6] = biological target: T2, Polyadenylate-binding protein 1; test: MLLE binding blockers, Cy5 peptide tracer – biochemical, fluorescence polarization, Cy5-PAM2 peptide, secondary, miRNA deadenylation inhibitor project, dose response (AID 602260); format: functional; conditions: read-out: IC50_Mean
[7] = biological target: Melanin-concentrating hormone receptor 1 (Homo sapiens, UniProt Q99705); test: Late-stage fluorescence-based counterscreen for antagonists of the G-protein coupled receptor 7 (GPR7): cell-based dose response assay to identify antagonists of the melanin-concentrating hormone receptor 1 (MCHR1). [Related pubchem assays (depositor defined):AID1861, AID1880, AID1952, AID2148, AID2251, AID2257, AID485339]; format: functional;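 also: stimulated with 30 nM MCH peptide agonist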
Melanin-concentrating hormone receptor 1, sequence (Q99705 whole entry): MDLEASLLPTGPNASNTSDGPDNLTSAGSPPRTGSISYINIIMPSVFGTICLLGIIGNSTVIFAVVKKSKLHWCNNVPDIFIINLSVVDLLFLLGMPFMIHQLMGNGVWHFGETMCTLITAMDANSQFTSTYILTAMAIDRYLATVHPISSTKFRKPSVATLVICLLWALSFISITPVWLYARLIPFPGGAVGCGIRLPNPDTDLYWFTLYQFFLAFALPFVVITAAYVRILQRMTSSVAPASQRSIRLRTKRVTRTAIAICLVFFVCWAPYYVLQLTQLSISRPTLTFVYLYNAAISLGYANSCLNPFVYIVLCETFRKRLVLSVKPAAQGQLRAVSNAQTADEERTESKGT

[8] = biological target: Voltage-gated N-type calcium channel alpha-1B subunit/Amyloid beta A4 precursor protein-binding family A member 1 (Homo sapiens, UniProt Q00975+Q02410); test: disruptors of Mint-PDZ/N-type channel peptide interaction – biochemical, HTRF, set 2, SAR follow-up (AID 434980); format: functional
[9] = biological target: Beta-galactosidase (Escherichia coli, UniProt Q8VNN2); test: detection-enzyme interference by beta-gal modulators – biochemical, E. coli enzyme, set 3, artefact control for CCR6 antagonist project, dose response (AID 504712); format: functional
Beta-galactosidase, sequence (Q8VNN2 whole entry): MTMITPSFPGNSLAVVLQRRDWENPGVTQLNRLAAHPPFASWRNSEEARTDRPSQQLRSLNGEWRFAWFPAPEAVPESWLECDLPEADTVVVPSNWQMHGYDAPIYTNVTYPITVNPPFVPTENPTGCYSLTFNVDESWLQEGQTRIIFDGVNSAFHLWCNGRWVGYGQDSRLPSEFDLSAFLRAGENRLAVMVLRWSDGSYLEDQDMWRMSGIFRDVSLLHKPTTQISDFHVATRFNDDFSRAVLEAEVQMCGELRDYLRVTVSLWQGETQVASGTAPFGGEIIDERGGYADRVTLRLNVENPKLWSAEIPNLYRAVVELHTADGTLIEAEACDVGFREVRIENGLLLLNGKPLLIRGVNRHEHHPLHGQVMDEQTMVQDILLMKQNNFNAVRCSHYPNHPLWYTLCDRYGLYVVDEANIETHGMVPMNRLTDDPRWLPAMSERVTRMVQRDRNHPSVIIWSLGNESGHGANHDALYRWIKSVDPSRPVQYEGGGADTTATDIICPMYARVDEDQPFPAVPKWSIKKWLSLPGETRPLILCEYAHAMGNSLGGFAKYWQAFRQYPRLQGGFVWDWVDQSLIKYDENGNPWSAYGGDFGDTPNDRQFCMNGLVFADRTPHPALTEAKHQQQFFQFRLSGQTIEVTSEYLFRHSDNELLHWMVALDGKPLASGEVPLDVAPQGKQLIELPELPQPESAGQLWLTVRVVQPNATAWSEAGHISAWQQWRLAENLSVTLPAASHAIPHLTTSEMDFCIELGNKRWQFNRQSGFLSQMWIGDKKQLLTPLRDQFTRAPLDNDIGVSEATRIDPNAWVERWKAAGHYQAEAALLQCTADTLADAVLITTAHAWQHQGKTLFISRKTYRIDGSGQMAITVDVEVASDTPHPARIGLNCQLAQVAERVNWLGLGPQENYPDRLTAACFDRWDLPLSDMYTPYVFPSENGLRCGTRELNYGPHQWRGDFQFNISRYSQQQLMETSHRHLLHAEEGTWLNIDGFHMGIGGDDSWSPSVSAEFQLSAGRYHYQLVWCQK

[10] = test system: Streptococcus; test: GAS UMAA2166 growth inhibition – luminescence, BacTiterGlo, counter-screen for streptokinase expression inhibitor project, dose response (AID 1915); format: functional, organism-based;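 also: potency for reduction of bacterial viability or growth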
[11] = biological target: Nonstructural protein 1 (Influenza A virus, UniProt Q194T2); format: functional, Influenza A virus (A/California/07/2009(H1N1))
Nonstructural protein 1, sequence (Q194T2 whole entry): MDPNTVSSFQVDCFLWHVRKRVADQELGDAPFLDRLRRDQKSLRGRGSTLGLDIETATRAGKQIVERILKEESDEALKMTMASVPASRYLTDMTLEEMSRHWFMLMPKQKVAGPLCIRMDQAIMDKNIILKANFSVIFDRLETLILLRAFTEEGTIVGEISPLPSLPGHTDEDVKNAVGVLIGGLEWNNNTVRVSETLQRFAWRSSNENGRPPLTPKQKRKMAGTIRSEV

[12] = test system: Streptococcus sp. 'group A'; test: Streptococcus pyogenes SK(-)GAS viability under kanamycin – luminescence, BacTiterGlo, confirmation, counter-screen for streptokinase expression inhibitor project, dose response (AID 1900); format: functional, organism-based
[13] = biological target: NS3 (Hepatitis C virus, UniProt A3EZJ3); test: PubChem AID 2173; set-up: species or system Hepacivirus hominis
NS3, sequence (A3EZJ3 whole entry): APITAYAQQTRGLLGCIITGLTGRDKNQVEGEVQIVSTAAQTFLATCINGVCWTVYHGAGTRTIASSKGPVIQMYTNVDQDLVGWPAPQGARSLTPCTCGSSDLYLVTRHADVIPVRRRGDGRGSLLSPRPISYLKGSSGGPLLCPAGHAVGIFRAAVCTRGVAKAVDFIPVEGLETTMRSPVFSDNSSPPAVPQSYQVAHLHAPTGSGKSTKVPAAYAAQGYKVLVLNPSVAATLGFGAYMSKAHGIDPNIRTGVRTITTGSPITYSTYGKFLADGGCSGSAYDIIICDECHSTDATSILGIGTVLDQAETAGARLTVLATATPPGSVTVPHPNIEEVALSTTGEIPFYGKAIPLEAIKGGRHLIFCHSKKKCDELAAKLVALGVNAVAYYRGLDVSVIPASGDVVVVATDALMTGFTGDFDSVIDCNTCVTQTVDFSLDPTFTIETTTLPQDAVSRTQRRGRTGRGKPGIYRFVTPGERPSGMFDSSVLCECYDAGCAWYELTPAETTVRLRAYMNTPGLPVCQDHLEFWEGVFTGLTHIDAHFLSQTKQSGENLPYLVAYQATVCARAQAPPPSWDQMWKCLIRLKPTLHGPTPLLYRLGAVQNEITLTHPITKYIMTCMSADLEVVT

[14] = biological target: T3, Streptokinase A (Streptococcus pyogenes serotype M1, UniProt P10520); test: viability-normalized secreted streptokinase activity reduction – plasminogen activation absorbance, OD405, dose response (AID 1914); format: functional, Streptococcus pyogenes M1 GAS;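 also: secreted streptokinase activity via plasminogen activation per viability signal from cell pellet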
T3 sequence (P10520 whole entry): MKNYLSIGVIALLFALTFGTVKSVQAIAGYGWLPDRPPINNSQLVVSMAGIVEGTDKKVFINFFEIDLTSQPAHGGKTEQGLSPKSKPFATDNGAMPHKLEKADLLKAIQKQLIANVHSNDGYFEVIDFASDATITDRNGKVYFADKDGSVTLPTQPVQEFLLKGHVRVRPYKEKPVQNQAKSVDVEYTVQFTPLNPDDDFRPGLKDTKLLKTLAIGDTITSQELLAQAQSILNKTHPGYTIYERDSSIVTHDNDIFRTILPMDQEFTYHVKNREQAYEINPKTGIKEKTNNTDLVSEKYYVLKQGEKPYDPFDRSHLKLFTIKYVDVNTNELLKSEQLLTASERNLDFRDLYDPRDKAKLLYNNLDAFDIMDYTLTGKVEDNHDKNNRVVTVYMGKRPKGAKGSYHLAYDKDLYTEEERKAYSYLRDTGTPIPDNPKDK

Serine/threonine-protein phosphatase PP1-alpha catalytic subunit, sequence (P62136 whole entry): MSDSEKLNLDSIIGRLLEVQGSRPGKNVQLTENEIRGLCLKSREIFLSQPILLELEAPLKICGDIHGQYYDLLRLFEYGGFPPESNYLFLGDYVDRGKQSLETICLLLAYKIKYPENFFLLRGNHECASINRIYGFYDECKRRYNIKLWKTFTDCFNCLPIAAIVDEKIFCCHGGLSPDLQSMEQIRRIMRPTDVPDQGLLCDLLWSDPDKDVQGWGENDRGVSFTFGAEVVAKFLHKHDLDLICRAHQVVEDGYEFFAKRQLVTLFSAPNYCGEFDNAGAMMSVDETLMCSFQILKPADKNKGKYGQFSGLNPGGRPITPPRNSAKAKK

SMILES: Clc1ccc(-n2nnnc2-c2cnc(-c3ccccn3)nc2-c2cccs2)cc1
- IC50 [1]: 4.64 µM (active)
- IC50 [2]: > 67 µM (not active)

SMILES: COc1ccc(NS(=O)(=O)c2ccc(Cl)s2)cn1
- IC50 [3]: 6.3 µM (active)
- IC50 [4]: 14.9 µM (active)
- IC50 [5]: 4.54 µM (active)
- IC50 [6]: > 66 µM (inactive)

SMILES: Cc1ccccc1CN1CCCCC1C(=O)N1CCN(c2ccc([N+](=O)[O-])cc2)CC1 (centres undefined)
- IC50 [7]: 5.8 µM (active)

SMILES: CC(C)(C)CCNC(=O)c1cc(-c2ccco2)nc2ccccc12
- IC50 [8]: > 56.8 µM (inactive)

SMILES: COCC/N=c1\scc(-c2ccc3c(c2)NC(=O)CO3)n1/N=C(\C)c1ccc(O)cc1
- IC50 [9]: > 66.6 µM (inactive)

SMILES: COc1ccc(/C=N\NC(=O)c2cc(O)c(O)c(O)c2)cc1COc1ccc(C(=O)OCC(C)C)cc1
- EC50 [10]: 6.69 µM (active)
- IC50 [11]: 78.6 µM (active)
- EC50 [12]: 6.26 µM (active)
- IC50 [13]: 4.44 µM (active)
- EC50 [14]: > 150 µM (not active)
